Consider four molecules from PMC6923765, “Structural Design, Synthesis, and Preliminary Biological Evaluation of Novel Dihomooxacalix[4]arene-Based Anti-tumor Agents” (Frontiers in Chemistry, 2019).

For data set [1], the system named is A549 cells (human lung carcinoma cells). Kind of data set: SRB cytotoxicity assay, A549 cells. As to conditions: 72 h, SRB; for IC50: read-out: IC50 (μM) A549. In kind it is cell-based. Here is the method: (§1) A549 cells (human lung carcinoma cells), MCF-7 cells (human breast cancer cells), HeLa cells (human cervical cancer cells), HepG2 cells (human hepatocellular carcinoma cells), and HUVEC cells (human umbilical vein endothelial cells) were kindly provided by WeiFang Caleb Pharmaceuticals, Inc. A549 cells were cultured in Ham's F12K medium containing 10% fetal bovine serum, 2 mM L-glutamine, and 1.5 g/L sodium bicarbonate; MCF-7 cells were cultured on cell culture flask using RPMI 1640 medium with 2 mM L-glutamine adjusted to contain 1.5 g/L sodium bicarbonate, 4.5 g/L glucose, 10 mM HEPES, 1.0 mM sodium pyruvate, and 10% fetal bovine serum. Hela cells were cultured on Cell culture flask using 2 mM L-glutamine adjusted to contain 1.5 g/L sodium bicarbonate, 4.5 g/L glucose, 10 mM HEPES, and 1.0 mM sodium pyruvate in RPMI 1640 medium supplemented with 0.5 mg/ml G418 and 10% fetal bovine serum. HepG2 cells were cultured in minimum essential medium (Eagle) with 2 mM L-glutamine, Earle's BSS, 1.5 g/L sodium bicarbonate, 0.1 mM non-essential amino acids, 1.0 mM sodium pyruvate, and 10% fetal bovine serum. HUVEC cells were cultured in M199 medium containing 2 mM L-glutamine adjusted to contain 1.5 g/L sodium bicarbonate, 4.5 g/L glucose, 10 mM HEPES, 1.0 mM sodium pyruvate, ECGS, and 10% fetal bovine serum. All cells were cultured at 37°C in 5% CO2.
(§2) The cell proliferation of adherent cells was determined by sulforhodamine B assay (SRB) (Quan et al., [2009]; Li et al., [2017]). All cells were cultured in culture medium containing 10% fetal bovine serum and have been in the logarithmic growth phase. All cell types were seeded in a 96-well culture plate at a concentration of 1–5 × 10^4 cells per well at 37°C in a 5% CO2 incubator for 24 h. The cells were then exposed to seven drug concentrations of dihomooxacalix[4]arene derivatives for 72 h with each concentration located in three wells. Then, the cells were fixed with trichloroacetic acid (TCA). After washing, SRB working solution was added to the cells to […]. SRB combined with protein was dissolved in Tris base. OD values were measured for each well with a SPECTRA max 190 Cell microplate reader under 540 nm wavelength. According to the OD value, the cell growth inhibition rate was calculated.
(In general: In SRB staining, fixed cells bind dye roughly in proportion to their protein.)

For data set [2], the system named is MCF-7 cells (human breast cancer cells). Kind of data set: SRB cytotoxicity assay, MCF-7 cells. In kind it is cell-based. Conditions: SRB; for inhibition at 10 µM: MCF7, 10 μM, 72 h; for IC50: MCF7, 72 h, read-out: IC50 (μM) MCF-7. The method, then:
as §1, §2

In data set [3] the test system is HeLa cells (human cervical cancer cells). Kind of data set: SRB cytotoxicity assay, HeLa cells. Format: cell-based. Conditions: 72 h, SRB; for IC50: read-out: IC50 (μM) HeLa. Here is the method: as §1, §2
Data set [4] relates to HepG2 cells (human hepatocellular carcinoma cells). Kind of data set: SRB cytotoxicity assay, HepG2 cells. Conditions: 72 h, SRB; for IC50: read-out: IC50 (μM) HepG2. Format: cell-based. The method, then: as §1, §2
Data set [5] deals with HUVEC cells (human umbilical vein endothelial cells). Kind of data set: SRB cytotoxicity assay, HUVEC normal cells. Format: cell-based. Conditions: Homo sapiens, HUVEC, 72 h, 10 μM, SRB; toxicity to normal cells. The method, then: as §1, §2
Data set [6] concerns MCF-7 cells. Kind of data set: Flow cytometry for cell cycle analysis (PI). Format: cell-based, human. As to conditions: 3 μM, 48 h; for percentage of cells in G0/G1 phase: non-treated 61.36 ± 3.65%. Here is the method: For flow cytometric analysis of DNA content, MCF-7 cells in exponential growth were treated with compound for 48 h. The cells treated with compound were collected, washed twice with PBS, and then fixed with 75% alcohol overnight. Then, the cells were washed with PBS and resuspended in 100 μl of PBS, 200 mg/ml RNase was added for 30 min to eliminate the interference of RNA, and 20 ml/L propidium iodide (PI; Sigma) was added for 30 min. Then, the cells were washed, and the DNA content was detected by a flow cytometer (BD Accuri C6).

Data set [7] relates to MCF-7 cells. Kind of data set: Flow cytometry for cell apoptosis analysis (annexin V-FITC/PI). As to conditions: 48 h, non-treated 14.50 ± 0.68%. In kind it is cell-based, human. The method, then:
MCF-7 cells (5 × 10^5 cells/ml) were seeded in six-well plates and treated with compounds at different concentrations for 48 h. The cells were then harvested by trypsinization and washed twice with cold PBS. After centrifugation and removal of the supernatants, cells were resuspended in 400 μl of 1 × binding buffer, which was then added to 5 μl of annexin V-FITC and incubated at room temperature for 15 min. After adding 10 μl of PI, the cells were incubated at room temperature for another 15 min in the dark. The stained cells were analyzed by a flow cytometer (BD Accuri C6).
A general note: A flow cytometer gives signals particle by particle.

Data set [8] relates to A549, MCF-7, HeLa and HepG2 cells. Kind of data set: SRB cytotoxicity assay, four tumor cell types taken together. Conditions: Homo sapiens, 72 h, range over A549, MCF-7, HeLa, read-out: single concentration inhibition on the four tumor cells. In kind it is cell-based. Here is the method: as §1, with “HepG2 cells were cultured in minimum essential medium (Eagle) with 2 mM L-glutamine, Earle's BSS, 1.5 g/L sodium bicarbonate, 0.1 mM non-essential amino acids, 1.0 mM sodium pyruvate, and 10% fetal bovine serum. HUVEC cells were cultured in M199 medium containing 2 mM L-glutamine adjusted to contain 1.5 g/L sodium bicarbonate, 4.5 g/L glucose, 10 mM HEPES, 1.0 mM sodium pyruvate, ECGS, and 10% fetal bovine serum. All cells were cultured at 37°C in 5% CO2.” left out
The cell proliferation of adherent cells was determined by sulforhodamine B assay (SRB) (Quan et al., [2009]; Li et al., [2017]). […] OD values were measured for each well with a SPECTRA max 190 Cell microplate reader under 540 nm wavelength. According to the OD value, the cell growth inhibition rate was calculated.

Molecules are shown by their SMILES.

By IC50 is commonly meant the concentration needed to halve the response being measured. As usually defined, the melting point is the temperature of the solid-liquid transition. Molecule `CC(C)(C)c1cc2c(O)c(c1)Cc1cc(C(C)(C)C)cc(c1OCC(=O)NCCO)Cc1cc(C(C)(C)C)cc(c1O)Cc1cc(C(C)(C)C)cc(c1OCC(=O)NCCO)COC2` [Compound 4A, 7,13,19,25-tetra-tert-butyl-28,30-di-hydroxy-27,29-di-(N-(2-hydroxyethyl)-aminocarbonylmethoxyl)-2,3-dihomo-3-oxacalix[4]arene] showed a melting point of 139.7 to 142.3 °C. Moreover, in [1], the inhibition at 10 µM was determined as 100% and the IC50 was determined as 2 ± 0.5 µM. Besides, in data set [2], the inhibition at 10 µM amounted to 100% and the IC50 came out at 1 ± 0.1 µM. For the same molecule, in [3], the inhibition at 10 µM was 100% and the IC50 came out at 0.8 ± 0.2 µM. For the same molecule, in [4], the inhibition at 10 µM was determined as 86% and the IC50 amounted to 2.7 ± 0.4 µM. In data set [5], the inhibition at 10 µM is 41%. Further, the “percentage of cells in G2/M phase” value in the data set on MCF-7 cells [6] (non-treated 10.06 ± 0.91) is 1.87 ± 2.45%. The “percentage of cells in S phase” value in the data set on MCF-7 cells [6] (non-treated 24.69 ± 6.30%) was 20.68 ± 13.12%. Also, the “percentage of cells in G0/G1 phase” value in the data set with MCF-7 cells [6] is 71.39 ± 11.21%. This molecule also came in with an apoptotic rate with MCF-7 cells [7] (1 μM) of 19.63 ± 0.11%. For the same molecule, in the data set on MCF-7 cells [7] (3 μM), the apoptotic rate is recorded as 15.40 ± 0.13%. Also, in the data set with MCF-7 cells [7] (10 μM), the apoptotic rate amounted to 40.74 ± 0.38%. In data set [8], the inhibition at 10 µM lay in the range of 86 to 100%.
Molecule `CC(C)(C)c1cc2c(O)c(c1)Cc1cc(C(C)(C)C)cc(c1OCC(=O)NCCCCCCN)Cc1cc(C(C)(C)C)cc(c1O)Cc1cc(C(C)(C)C)cc(c1OCC(=O)NCCCCCCN)COC2` [Compound 4D, 7,13,19,25-tetra-tert-butyl-28,30-di-hydroxy-27,29-di-(N-(6-aminohexyl)-aminocarbonylmethoxyl)-2,3-dihomo-3-oxa calix[4] arene] showed a melting point of 123.3 to 125.9 °C. Besides, in data set [1], the inhibition at 10 µM was 99% and the 50% inhibitory concentration (IC50) was found to be 0.7 ± 0.1 µM. In data set [2], the inhibition at 10 µM amounted to 99% and the IC50 was determined as 1.8 ± 0.7 µM. In [3], the inhibition at 10 µM came out at 100% and the IC50 was 1.9 ± 0.1 µM. Moreover, in data set [4], the inhibition at 10 µM was found to be 72% and the IC50 was 2.6 ± 0.2 µM. Further, the inhibition at 10 µM in data set [5] was 90%. In the data set with MCF-7 cells [6], the “percentage of cells in G0/G1 phase” value was 73.56 ± 3.95%. In the data set with MCF-7 cells [7] (3 μM), this molecule returned an apoptotic rate of 33.55 ± 0.78%. The molecule further came in with an apoptotic rate with MCF-7 cells [7] (10 μM) of 61.15 ± 2.76%.
As for `CCCCNC(=O)COc1c2cc(C(C)(C)C)cc1Cc1cc(C(C)(C)C)cc(c1O)Cc1cc(C(C)(C)C)cc(c1OCC(=O)NCCCC)Cc1cc(C(C)(C)C)cc(c1O)COC2` [Compound 4K, 7,13,19,25-tetra-tert-butyl-28,30-di-hydroxy-27,29-di-(N-butyl-aminocarbonylmethoxyl)-2,3-dihomo-3-oxacalix[4] arene], the melting point was in the range of 119.5 to 120.8 °C. In [1], the inhibition at 10 µM was 65% and the IC50 was 4.5 ± 1.4 µM. Moreover, the inhibition at 10 µM in data set [2] came to 41%. The molecule also displayed an inhibition at 10 µM in data set [3] of 42%. Also, the inhibition at 10 µM in [4] came out at 6%. The inhibition at 10 µM in [5] is 1%.
`CC(C)(C)c1cc2c(O)c(c1)Cc1cc(C(C)(C)C)cc(c1OCC(=O)NC1CCCC1)Cc1cc(C(C)(C)C)cc(c1O)Cc1cc(C(C)(C)C)cc(c1OCC(=O)NC1CCCC1)COC2` [Compound 4M, 7,13,19,25-tetra-tert-butyl-28,30-di-hydroxy-27,29-di-(N-clopentyl-aminocarbonylmethoxyl)-2,3-dihomo-3-oxacalix[4]arene] registered a melting point of 145.9 to 148.2 °C. Also, in data set [1], the inhibition at 10 µM was found to be 66% and the IC50 was 10.1 ± 1.8 µM. Also, the inhibition at 10 µM in data set [2] was determined as 29%. The inhibition at 10 µM in [3] amounted to 52%. The inhibition at 10 µM in data set [4] was determined as 12%. In data set [5], the inhibition at 10 µM was found to be 14%.
